Laboratory results: the supplement of paper PMC10307832

Legend:
Experiment in all cases: relative viability (nuclei count vs DMSO), 5 days (fraction); higher = more cells survive
[1] = system: ABC-1
Outline: (§1)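 After 5 days of treatment, lung cancer cells in 1536-well plates were fixed and stained in a single step (final 0.05% Triton X-100, 1% formaldehyde, 1 ug/ml Hoechst) and their nuclei counted on 4× images. Treatment had been applied by pin tool the day after seeding as one drug alone or as a fixed anchor-drug dose with five library-drug doses (not always all listed) in √10 steps. Relative viability is the nuclei count of treated wells divided by that of vehicle wells, and values are medians of duplicate plates.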

[2] = system: CAL-12T
Outline: as §1

[3] = system: COR-L 105
Outline: as §1

[4] = system: ChaGo-K-1
Outline: as §1

[5] = system: EMC-BAC-2
Outline: as §1

[6] = system: EPLC-272H
Outline: as §1

[7] = system: HCC-15
Outline: as §1

[8] = system: HCC-78
Outline: as §1

[9] = system: HOP-62
Outline: as §1

[10] = system: LXF-289
Outline: as §1

[11] = system: NCI-H1666
Outline: as §1

[12] = system: NCI-H1755
Outline: as §1

[13] = system: NCI-H1915
Outline: as §1

[14] = system: NCI-H1975
Outline: as §1

[15] = system: NCI-H2023
Outline: as §1

[16] = system: NCI-H2085
Outline: as §1

[17] = system: NCI-H2126
Outline: as §1

[18] = system: NCI-H3122
Outline: as §1

[19] = system: NCI-H322M
Outline: as §1

[20] = system: NCI-H358
Outline: as §1

[21] = system: NCI-H441
Outline: as §1

[22] = system: UMC-11
Outline: as §1

What does the source list for `Nc1ccn([C@@H]2O[C@H](CO)[C@@H](O)[C@@H]2O)c(=O)n1` [Cytarabine] + C[C@@H](Oc1cc(-c2cnn(C3CCNCC3)c2)cnc1N)c1c(Cl)ccc(F)c1Cl [Crizotinib] (partner 1 µM)?
relative viability ([1]; first compound 0.005 µM): 0.871; relative viability ([1]; first compound 0.01581 µM): 0.821; relative viability ([1]; first compound 0.05 µM): 0.925; relative viability ([1]; first compound 0.1581 µM): 0.717; relative viability ([1]; first compound 0.5 µM): 0.462; relative viability ([2]; first compound 0.005 µM): 0.413; relative viability ([2]; first compound 0.01581 µM): 0.753; relative viability ([2]; first compound 0.05 µM): 0.703; relative viability ([2]; first compound 0.1581 µM): 0.511; relative viability ([2]; first compound 0.5 µM): 0.153; relative viability ([3]; first compound 0.005 µM): 0.657; relative viability ([3]; first compound 0.01581 µM): 0.725; relative viability ([3]; first compound 0.05 µM): 0.511; relative viability ([3]; first compound 0.1581 µM): 0.393; relative viability ([3]; first compound 0.5 µM): 0.256; relative viability ([4]; first compound 0.005 µM): 0.732; relative viability ([4]; first compound 0.01581 µM): 0.717; relative viability ([4]; first compound 0.05 µM): 0.521; relative viability ([4]; first compound 0.1581 µM): 0.383; relative viability ([4]; first compound 0.5 µM): 0.358; relative viability ([5]; first compound 0.005 µM): 0.592; relative viability ([5]; first compound 0.01581 µM): 0.574; relative viability ([5]; first compound 0.05 µM): 0.472; relative viability ([5]; first compound 0.1581 µM): 0.242; relative viability ([5]; first compound 0.5 µM): 0.185; relative viability ([6]; first compound 0.005 µM): 0.667; relative viability ([6]; first compound 0.01581 µM): 0.379; relative viability ([6]; first compound 0.05 µM): 0.577; relative viability ([6]; first compound 0.1581 µM): 0.326; relative viability ([6]; first compound 0.5 µM): 0.368; relative viability ([7]; first compound 0.005 µM): 0.765; relative viability ([7]; first compound 0.01581 µM): 0.895; relative viability ([7]; first compound 0.05 µM): 0.84; relative viability ([7]; first compound 0.1581 µM): 0.67; relative viability ([7]; first compound 0.5 µM): 0.591; relative viability ([8]; first compound 0.005 µM): 0.369; relative viability ([8]; first compound 0.01581 µM): 0.302; relative viability ([8]; first compound 0.05 µM): 0.282; relative viability ([8]; first compound 0.1581 µM): 0.26; relative viability ([8]; first compound 0.5 µM): 0.2; relative viability ([9]; first compound 0.005 µM): 0.766; relative viability ([9]; first compound 0.01581 µM): 0.49; relative viability ([9]; first compound 0.05 µM): 0.379; relative viability ([9]; first compound 0.1581 µM): 0.0643; relative viability ([9]; first compound 0.5 µM): 0.0736; relative viability ([10]; first compound 0.005 µM): 0.745; relative viability ([10]; first compound 0.01581 µM): 0.78; relative viability ([10]; first compound 0.05 µM): 0.663; relative viability ([10]; first compound 0.1581 µM): 0.339; relative viability ([10]; first compound 0.5 µM): 0.389; relative viability ([11]; first compound 0.005 µM): 0.794; relative viability ([11]; first compound 0.01581 µM): 0.945; relative viability ([11]; first compound 0.05 µM): 0.612; relative viability ([11]; first compound 0.1581 µM): 0.358; relative viability ([11]; first compound 0.5 µM): 0.388; relative viability ([12]; first compound 0.005 µM): 0.788; relative viability ([12]; first compound 0.01581 µM): 0.761; relative viability ([12]; first compound 0.05 µM): 0.565; relative viability ([12]; first compound 0.1581 µM): 0.265; relative viability ([12]; first compound 0.5 µM): 0.286; relative viability ([13]; first compound 0.005 µM): 0.888; relative viability ([13]; first compound 0.01581 µM): 0.882; relative viability ([13]; first compound 0.05 µM): 0.686; relative viability ([13]; first compound 0.1581 µM): 0.393; relative viability ([13]; first compound 0.5 µM): 0.333; relative viability ([14]; first compound 0.005 µM): 0.801; relative viability ([14]; first compound 0.01581 µM): 1.01; relative viability ([14]; first compound 0.05 µM): 0.994; relative viability ([14]; first compound 0.1581 µM): 0.667; relative viability ([14]; first compound 0.5 µM): 0.373; relative viability ([15]; first compound 0.005 µM): 0.366; relative viability ([15]; first compound 0.01581 µM): 0.368; relative viability ([15]; first compound 0.05 µM): 0.113; relative viability ([15]; first compound 0.1581 µM): 0.101; relative viability ([15]; first compound 0.5 µM): 0.0749; relative viability ([16]; first compound 0.005 µM): 0.718; relative viability ([16]; first compound 0.01581 µM): 0.883; relative viability ([16]; first compound 0.05 µM): 0.799; relative viability ([16]; first compound 0.1581 µM): 0.552; relative viability ([16]; first compound 0.5 µM): 0.621; relative viability ([17]; first compound 0.005 µM): 0.916; relative viability ([17]; first compound 0.01581 µM): 1.01; relative viability ([17]; first compound 0.05 µM): 0.96; relative viability ([17]; first compound 0.1581 µM): 0.78; relative viability ([17]; first compound 0.5 µM): 0.656; relative viability ([18]; first compound 0.005 µM): 0.264; relative viability ([18]; first compound 0.01581 µM): 0.239; relative viability ([18]; first compound 0.05 µM): 0.244; relative viability ([18]; first compound 0.1581 µM): 0.192; relative viability ([18]; first compound 0.5 µM): 0.204; relative viability ([19]; first compound 0.005 µM): 0.858; relative viability ([19]; first compound 0.01581 µM): 0.676; relative viability ([19]; first compound 0.05 µM): 0.534; relative viability ([19]; first compound 0.1581 µM): 0.366; relative viability ([19]; first compound 0.5 µM): 0.318; relative viability ([20]; first compound 0.005 µM): 0.488; relative viability ([20]; first compound 0.01581 µM): 0.5; relative viability ([20]; first compound 0.05 µM): 0.352; relative viability ([20]; first compound 0.1581 µM): 0.319; relative viability ([20]; first compound 0.5 µM): 0.231; relative viability ([21]; first compound 0.005 µM): 0.776; relative viability ([21]; first compound 0.01581 µM): 0.824; relative viability ([21]; first compound 0.05 µM): 0.598; relative viability ([21]; first compound 0.1581 µM): 0.199; relative viability ([21]; first compound 0.5 µM): 0.165; relative viability ([22]; first compound 0.005 µM): 0.454; relative viability ([22]; first compound 0.01581 µM): 0.52; relative viability ([22]; first compound 0.05 µM): 0.336; relative viability ([22]; first compound 0.1581 µM): 0.267; relative viability ([22]; first compound 0.5 µM): 0.205
